Test results as given in US20180207228A1, “PEPTIDE COMBINATIONS AND USES THEREOF FOR TREATING GRASS ALLERGY” (ALK-Abelló A/S, priority 2015, published 2018).
Where no end group is shown, it is not given here.

System: grass pollen allergic donor derived TCL-03 lines
Assay: Extended cross-reactivity study, proliferation on TCL03 DK1+DK2 (Study XR2), scoring
Assay type: cell-based, human
Set-up: Cross-reactivity score: scale not given here
Settings: for cross-reactivity of homologue / cross-reactivity score of homologue: 2 μg/ml, 20 donors; for cross-reactivity score of homologue: score 0 to 7
[1] = homologue of peptide 217 (Phl p 3), Table 45
[2] = homologue of peptide 238 (Phl p 5), Table 48
[3] = homologue of peptide 207 (Phl p 1), Table 43
[4] = homologue of peptide 285, Table 50
[5] = homologue of peptide 206 (Phl p 1), Table 42

## CC[C@H](C)[C@H](NC(=O)[C@H](CC(N)=O)NC(=O)[C@H](CC(C)C)NC(=O)[C@@H](NC(=O)[C@H](CC(C)C)NC(=O)[C@@H](NC(=O)[C@H](CCCCN)NC(=O)[C@H](C)NC(=O)[C@H](CC(=O)O)NC(=O)[C@H](CO)NC(=O)CN)[C@@H](C)O)C(C)C)C(=O)N[C@@H](CCCCN)C(=O)N[C@@H](Cc1ccc(O)cc1)C(=O)N[C@H](C(=O)N[C@@H](CCCNC(=N)N)C(=O)N1CCC[C@H]1C(=O)NCC(=O)N[C@@H](CC(=O)O)C(=O)N[C@H](C(=O)N[C@@H](CC(C)C)C(=O)O)[C@@H](C)O)[C@@H](C)O [compound 328]
  cross-reactivity of homologue: considerable cross-reactivity
[1]
  Cross-reactivity score: 5

## CC[C@H](C)[C@H](NC(=O)[C@H](Cc1ccccc1)NC(=O)[C@H](CCCCN)NC(=O)[C@H](Cc1ccc(O)cc1)NC(=O)[C@@H](NC(=O)[C@H](CCC(=O)O)NC(=O)[C@H](Cc1ccc(O)cc1)NC(=O)[C@H](C)NC(=O)CNC(=O)[C@H](C)NC(=O)[C@@H](NC(=O)[C@@H](N)CO)[C@@H](C)O)[C@@H](C)O)C(=O)N1CCC[C@H]1C(=O)N[C@@H](CO)C(=O)N[C@@H](CC(C)C)C(=O)N[C@@H](CCC(=O)O)C(=O)N[C@@H](C)C(=O)N[C@@H](C)C(=O)N[C@H](C(=O)N[C@@H](CCCCN)C(=O)O)C(C)C [compound 363]
[2]
  Cross-reactivity score: 5

## CC[C@H](C)[C@H](NC(=O)[C@H](Cc1ccccc1)NC(=O)[C@H](CCCCN)NC(=O)[C@H](Cc1ccc(O)cc1)NC(=O)[C@@H](NC(=O)[C@H](CCC(=O)O)NC(=O)[C@H](Cc1ccc(O)cc1)NC(=O)[C@H](C)NC(=O)CNC(=O)CNC(=O)[C@@H](NC(=O)[C@@H](N)CO)[C@@H](C)O)[C@@H](C)O)C(=O)N1CCC[C@H]1C(=O)N[C@@H](CO)C(=O)N[C@@H](CC(C)C)C(=O)N[C@@H](CCC(=O)O)C(=O)N[C@@H](C)C(=O)N[C@@H](C)C(=O)N[C@H](C(=O)N[C@@H](CCCCN)C(=O)O)C(C)C [compound 405]
[2]
  Cross-reactivity score: 5

## CC[C@H](C)[C@H](NC(=O)[C@H](Cc1ccccc1)NC(=O)[C@@H](N)CCCCN)C(=O)N1CCC[C@H]1C(=O)N[C@@H](C)C(=O)N[C@@H](CC(C)C)C(=O)N[C@@H](CCC(=O)O)C(=O)N[C@@H](C)C(=O)N[C@@H](C)C(=O)N[C@H](C(=O)N[C@@H](CCCCN)C(=O)N[C@@H](CCC(N)=O)C(=O)N[C@@H](CO)C(=O)N[C@@H](Cc1ccc(O)cc1)C(=O)N[C@@H](C)C(=O)N[C@@H](C)C(=O)N[C@H](C(=O)N[C@H](C(=O)N[C@@H](C)C(=O)N[C@H](C(=O)O)[C@@H](C)O)C(C)C)[C@@H](C)O)C(C)C [compound 409]
Homologue of peptide 239 (Phl p 5), Table 49
  Cross-reactivity score: 7

## AGELELKFRRVKSEYPEGTK-OH [compound 385]
[3]
  Cross-reactivity score: 1

## AGELELQFRRVKSKYPDGTK-OH [compound 383]
  cross-reactivity of homologue: considerable cross-reactivity
[3]
  Cross-reactivity score: 6

## AGELELQFRRVKSKYPEGTK-OH [compound 382]
  cross-reactivity of homologue: considerable cross-reactivity
[3]
  Cross-reactivity score: 3

## AGELTLQFRRVKSKYPSGTK-OH [compound 318]
[3]
  Cross-reactivity score: 0

## AYESYKFIPTLEAAVKQAYA-OH [compound 413]
[4]
  Cross-reactivity score: 6

## AYQSYKFIPALEAAVKQSYA-OH [compound 416]
  cross-reactivity score of homologue: 1
[4]
  Cross-reactivity score: 1

## ERDFLTSLTKDIPPRQLYAK-OH [compound 398]
  cross-reactivity score of homologue: 1
Homologue of peptide 222 (Phl p 4), Table 46
  Cross-reactivity score: 1

## GEEDKLRKAGELMLQFRRVK-OH [compound 376]
[5]
  Cross-reactivity score: 0

## GEEEKLRKAGIIDMKFRRVK-OH [compound 381]
[5]
  Cross-reactivity score: 0.5

## GEEENVRGAGELELQFRRVK-OH [compound 379]
[5]
  Cross-reactivity score: 1

## GEEQKLRSAGELELKFRRVK-OH [compound 380]
[5]
  Cross-reactivity score: 0.5

## GEEQKLRSAGELELQFRRVK-OH [compound 377]
[5]
  Cross-reactivity score: 2

## GLNDKLRHYGIFDLEFRRVR-OH [compound 378]
[5]
  Cross-reactivity score: 0

## GSDPKKLVLDIKYTRPGDTL-OH [compound 397]
[1]
  Cross-reactivity score: 1

## STGGAYESYKFIPTLEAAVK-OH [compound 404]
[2]
  Cross-reactivity score: 5
